In patent US4971965A, “Antibiotics TAN-1057” (Takeda Chemical Industries, Ltd., priority 1988, dated 1990):
Converted amounts (≈) assume the structure as drawn. Like-named read-outs stand apart in the source and are kept apart here.

Experiments:
Assay in all cases: Antibacterial activity against clinically isolated S. aureus (agar dilution MIC, Table 2)
Type in all cases: cell-based
[1] = system: Staphylococcus aureus N28
Protocol: (§1) DMPPC: Methicillin, KM: Kanamycin, GM: Gentamycin, EM: Erythromycin (Note
(§2) Determined by the agar dilution method. Medium: Mueller Hinton medium
(§3) (Difco, USA) Inoculum Size: 10^6 CFU/ml, 37° C.

[2] = system: Staphylococcus aureus N247
Protocol: as §1, §2, §3

[3] = system: Staphylococcus aureus N176-6
Protocol: as §1, §2, §3

[4] = system: Staphylococcus aureus TS-65
Protocol: as §1, §2, §3

Staphylococcus aureus C3 = system: Staphylococcus aureus C3
Protocol: as §1, §2, §3

[5] = system: Staphylococcus aureus N262
Protocol: as §1, §2, §3

[6] = system: Staphylococcus aureus N129
Protocol: as §1, §2, §3

[7] = system: Staphylococcus aureus N176-3
Protocol: as §1, §2, §3

[8] = system: Staphylococcus aureus FDA 209P
Protocol: as §1, §2, §3

Staphylococcus aureus C7 = system: Staphylococcus aureus C7
Protocol: as §1, §2, §3

[9] = system: Staphylococcus aureus N121
Protocol: as §1, §2, §3

[10] = system: Staphylococcus aureus N237
Protocol: as §1, §2, §3

Staphylococcus aureus C4 = system: Staphylococcus aureus C4
Protocol: as §1, §2, §3

[11] = system: Staphylococcus aureus N64
Protocol: as §1, §2, §3

[12] = system: Staphylococcus aureus N83
Protocol: as §1, §2, §3

Staphylococcus aureus N8 = system: Staphylococcus aureus N8
Protocol: as §1, §2, §3

[13] = system: Staphylococcus aureus N51
Protocol: as §1, §2, §3

[14] = system: Staphylococcus aureus N62
Protocol: as §1, §2, §3

[15] = system: Staphylococcus aureus N247-21
Protocol: as §1, §2, §3

[16] = system: Staphylococcus aureus N176
Protocol: as §1, §2, §3

[17] = system: Staphylococcus aureus TST-75
Protocol: as §1, §2, §3

[18] = system: Staphylococcus aureus N247-16
Protocol: as §1, §2, §3

[19] = system: Staphylococcus aureus N91
Protocol: as §1, §2, §3

[20] = system: Staphylococcus aureus N267
Protocol: as §1, §2, §3

[21] = system: Staphylococcus aureus C10
Protocol: as §1, §2, §3

[22] = system: Staphylococcus aureus N235
Protocol: as §1, §2, §3

[23] = system: Staphylococcus aureus N326
Protocol: as §1, §2, §3

## Gentamycin [GM]
[1]; strain N28, agar dilution, Mueller Hinton medium, 10^6 CFU/ml
  MIC: 0.39 µg/mL
[2]; strain N247, agar dilution, Mueller Hinton medium, 10^6 CFU/ml
  MIC: 50 µg/mL
[3]; strain N176-6, agar dilution, Mueller Hinton medium, 10^6 CFU/ml
  MIC: 0.39 µg/mL
[4]; strain TS-65, agar dilution, Mueller Hinton medium, 10^6 CFU/ml
  MIC: 100 µg/mL
Staphylococcus aureus C3; strain C3, agar dilution, Mueller Hinton medium, 10^6 CFU/ml
  MIC: 100 µg/mL
[5]; strain N262, agar dilution, Mueller Hinton medium, 10^6 CFU/ml
  MIC: 50 µg/mL
[6]; strain N129, agar dilution, Mueller Hinton medium, 10^6 CFU/ml
  MIC: 50 µg/mL
[7]; strain N176-3, agar dilution, Mueller Hinton medium, 10^6 CFU/ml
  MIC: 0.39 µg/mL
[8]; strain FDA 209P, agar dilution, Mueller Hinton medium, 10^6 CFU/ml
  MIC: ≤ 0.20 µg/mL
Staphylococcus aureus C7; strain C7, agar dilution, Mueller Hinton medium, 10^6 CFU/ml
  MIC: > 100 µg/mL
[9]; strain N121, agar dilution, Mueller Hinton medium, 10^6 CFU/ml
  MIC: > 100 µg/mL
[10]; strain N237, agar dilution, Mueller Hinton medium, 10^6 CFU/ml
  MIC: > 100 µg/mL
Staphylococcus aureus C4; strain C4, agar dilution, Mueller Hinton medium, 10^6 CFU/ml
  MIC: 50 µg/mL
[11]; strain N64, agar dilution, Mueller Hinton medium, 10^6 CFU/ml
  MIC: 0.78 µg/mL
[12]; strain N83, agar dilution, Mueller Hinton medium, 10^6 CFU/ml
  MIC: ≤ 0.20 µg/mL
Staphylococcus aureus N8; strain N8, agar dilution, Mueller Hinton medium, 10^6 CFU/ml
  MIC: ≤ 0.20 µg/mL
[13]; strain N51, agar dilution, Mueller Hinton medium, 10^6 CFU/ml
  MIC: 0.39 µg/mL
[14]; strain N62, agar dilution, Mueller Hinton medium, 10^6 CFU/ml
  MIC: 3.13 µg/mL
[15]; strain N247-21, agar dilution, Mueller Hinton medium, 10^6 CFU/ml
  MIC: 50 µg/mL
[16]; strain N176, agar dilution, Mueller Hinton medium, 10^6 CFU/ml
  MIC: 0.39 µg/mL
[17]; strain TST-75, agar dilution, Mueller Hinton medium, 10^6 CFU/ml
  MIC: > 100 µg/mL
[18]; strain N247-16, agar dilution, Mueller Hinton medium, 10^6 CFU/ml
  MIC: 100 µg/mL
[19]; strain N91, agar dilution, Mueller Hinton medium, 10^6 CFU/ml
  MIC: 0.39 µg/mL
[20]; strain N267, agar dilution, Mueller Hinton medium, 10^6 CFU/ml
  MIC: 100 µg/mL
[21]; strain C10, agar dilution, Mueller Hinton medium, 10^6 CFU/ml
  MIC: > 100 µg/mL
[22]; strain N235, agar dilution, Mueller Hinton medium, 10^6 CFU/ml
  MIC: > 100 µg/mL
[23]; strain N326, agar dilution, Mueller Hinton medium, 10^6 CFU/ml
  MIC: > 100 µg/mL

## COc1cccc(OC)c1C(=O)N[C@@H]1C(=O)N2[C@@H]1SC(C)(C)[C@@H]2C(=O)O [DMPPC, Methicillin]
[1]; Staphylococcus aureus, strain N28, agar dilution, Mueller Hinton medium, 10^6 CFU/ml, read-out: MIC
  MIC: 1600 µg/mL (≈ 4210 µM)
[2]; Staphylococcus aureus, strain N247, agar dilution, Mueller Hinton medium, 10^6 CFU/ml, read-out: MIC
  MIC: 50 µg/mL (≈ 131 µM)
[3]; Staphylococcus aureus, N1766, strain N176-6, agar dilution, Mueller Hinton medium, 10^6 CFU/ml, read-out: MIC
  MIC: 200 µg/mL (≈ 526 µM)
[4]; Staphylococcus aureus, TS65, strain TS-65, agar dilution, Mueller Hinton medium, 10^6 CFU/ml, read-out: MIC
  MIC: > 1600 µg/mL
Staphylococcus aureus C3; Staphylococcus aureus, strain C3, agar dilution, Mueller Hinton medium, 10^6 CFU/ml, read-out: MIC
  MIC: 50 µg/mL (≈ 131 µM)
[5]; Staphylococcus aureus, strain N262, agar dilution, Mueller Hinton medium, 10^6 CFU/ml, read-out: MIC
  MIC: 100 µg/mL (≈ 263 µM)
[6]; Staphylococcus aureus, strain N129, agar dilution, Mueller Hinton medium, 10^6 CFU/ml, read-out: MIC
  MIC: 400 µg/mL (≈ 1050 µM)
[7]; Staphylococcus aureus, N1763, strain N176-3, agar dilution, Mueller Hinton medium, 10^6 CFU/ml, read-out: MIC
  MIC: 50 µg/mL (≈ 131 µM)
[8]; Staphylococcus aureus, FDA209P, strain FDA 209P, agar dilution, Mueller Hinton medium, 10^6 CFU/ml, read-out: MIC
  MIC: 1.56 µg/mL (≈ 4.1 µM)
Staphylococcus aureus C7; Staphylococcus aureus, strain C7, agar dilution, Mueller Hinton medium, 10^6 CFU/ml, read-out: MIC
  MIC: 50 µg/mL (≈ 131 µM)
[9]; Staphylococcus aureus, strain N121, agar dilution, Mueller Hinton medium, 10^6 CFU/ml, read-out: MIC
  MIC: 50 µg/mL (≈ 131 µM)
[10]; Staphylococcus aureus, strain N237, agar dilution, Mueller Hinton medium, 10^6 CFU/ml, read-out: MIC
  MIC: 20 µg/mL (≈ 52.6 µM)
Staphylococcus aureus C4; Staphylococcus aureus, strain C4, agar dilution, Mueller Hinton medium, 10^6 CFU/ml, read-out: MIC
  MIC: 50 µg/mL (≈ 131 µM)
[11]; Staphylococcus aureus, strain N64, agar dilution, Mueller Hinton medium, 10^6 CFU/ml, read-out: MIC
  MIC: 1600 µg/mL (≈ 4210 µM)
[12]; Staphylococcus aureus, strain N83, agar dilution, Mueller Hinton medium, 10^6 CFU/ml, read-out: MIC
  MIC: 3.13 µg/mL (≈ 8.23 µM)
Staphylococcus aureus N8; Staphylococcus aureus, strain N8, agar dilution, Mueller Hinton medium, 10^6 CFU/ml, read-out: MIC
  MIC: 1.56 µg/mL (≈ 4.1 µM)
[13]; Staphylococcus aureus, strain N51, agar dilution, Mueller Hinton medium, 10^6 CFU/ml, read-out: MIC
  MIC: 1.56 µg/mL (≈ 4.1 µM)
[14]; Staphylococcus aureus, strain N62, agar dilution, Mueller Hinton medium, 10^6 CFU/ml, read-out: MIC
  MIC: 3.13 µg/mL (≈ 8.23 µM)
[15]; Staphylococcus aureus, N24721, strain N247-21, agar dilution, Mueller Hinton medium, 10^6 CFU/ml, read-out: MIC
  MIC: 200 µg/mL (≈ 526 µM)
[16]; Staphylococcus aureus, strain N176, agar dilution, Mueller Hinton medium, 10^6 CFU/ml, read-out: MIC
  MIC: 12.5 µg/mL (≈ 32.9 µM)
[17]; Staphylococcus aureus, TST75, strain TST-75, agar dilution, Mueller Hinton medium, 10^6 CFU/ml, read-out: MIC
  MIC: 12.5 µg/mL (≈ 32.9 µM)
[18]; Staphylococcus aureus, N24716, strain N247-16, agar dilution, Mueller Hinton medium, 10^6 CFU/ml, read-out: MIC
  MIC: > 1600 µg/mL
[19]; Staphylococcus aureus, strain N91, agar dilution, Mueller Hinton medium, 10^6 CFU/ml, read-out: MIC
  MIC: 1.56 µg/mL (≈ 4.1 µM)
[20]; Staphylococcus aureus, strain N267, agar dilution, Mueller Hinton medium, 10^6 CFU/ml, read-out: MIC
  MIC: 100 µg/mL (≈ 263 µM)
[21]; Staphylococcus aureus, strain C10, agar dilution, Mueller Hinton medium, 10^6 CFU/ml, read-out: MIC
  MIC: 800 µg/mL (≈ 2100 µM)
[22]; Staphylococcus aureus, strain N235, agar dilution, Mueller Hinton medium, 10^6 CFU/ml, read-out: MIC
  MIC: 1.56 µg/mL (≈ 4.1 µM)
[23]; Staphylococcus aureus, strain N326, agar dilution, Mueller Hinton medium, 10^6 CFU/ml, read-out: MIC
  MIC: 1600 µg/mL (≈ 4210 µM)

## CC[C@H]1OC(=O)[C@H](C)[C@@H](O[C@H]2C[C@@](C)(OC)[C@@H](O)[C@H](C)O2)[C@H](C)[C@@H](O[C@@H]2O[C@H](C)C[C@H](N(C)C)[C@H]2O)[C@](C)(O)C[C@@H](C)C(=O)[C@H](C)[C@@H](O)[C@]1(C)O [EM, Erythromycin]
[1]; Staphylococcus aureus, N28
  MIC: > 100 µg/mL
[2]; Staphylococcus aureus, N247
  MIC: 6.25 µg/mL (≈ 8.52 µM)
[3]; Staphylococcus aureus, N1766
  MIC: > 100 µg/mL
[4]; Staphylococcus aureus, TS65
  MIC: > 100 µg/mL
Staphylococcus aureus C3; Staphylococcus aureus, C3
  MIC: > 100 µg/mL
[5]; Staphylococcus aureus, N262
  MIC: > 100 µg/mL
[6]; Staphylococcus aureus, N129
  MIC: 0.39 µg/mL (≈ 0.531 µM)
[7]; Staphylococcus aureus, N1763
  MIC: > 100 µg/mL
[8]; Staphylococcus aureus, FDA209P
  MIC: 0.39 µg/mL (≈ 0.531 µM)
Staphylococcus aureus C7; Staphylococcus aureus, C7
  MIC: 12.5 µg/mL (≈ 17 µM)
[9]; Staphylococcus aureus, N121
  MIC: 0.39 µg/mL (≈ 0.531 µM)
[10]; Staphylococcus aureus, N237
  MIC: > 100 µg/mL
Staphylococcus aureus C4; Staphylococcus aureus, C4
  MIC: 0.39 µg/mL (≈ 0.531 µM)
[11]; Staphylococcus aureus, N64
  MIC: > 100 µg/mL
[12]; Staphylococcus aureus, N83
  MIC: > 100 µg/mL
Staphylococcus aureus N8; Staphylococcus aureus, N8
  MIC: > 100 µg/mL
[13]; Staphylococcus aureus, N51
  MIC: 0.39 µg/mL (≈ 0.531 µM)
[14]; Staphylococcus aureus, N62
  MIC: > 100 µg/mL
[15]; Staphylococcus aureus, N24721
  MIC: 6.25 µg/mL (≈ 8.52 µM)
[16]; Staphylococcus aureus, N176
  MIC: > 100 µg/mL
[17]; Staphylococcus aureus, TST75
  MIC: > 100 µg/mL
[18]; Staphylococcus aureus, N24716
  MIC: 3.13 µg/mL (≈ 4.26 µM)
[19]; Staphylococcus aureus, N91
  MIC: 0.39 µg/mL (≈ 0.531 µM)
[20]; Staphylococcus aureus, N267
  MIC: > 100 µg/mL
[21]; Staphylococcus aureus, C10
  MIC: > 100 µg/mL
[22]; Staphylococcus aureus, N235
  MIC: > 100 µg/mL
[23]; Staphylococcus aureus, N326
  MIC: > 100 µg/mL
